In patent US10369119B2 (priority 2015, dated 2019):
Entries after “also recorded” stand apart in the source; their conditions may differ.

Columns and labels:
[1] = target: T1, caspase-6 (Mus musculus, UniProt O08738); test: biochemical; format: biochemical
T1 construct: Caspases were induced in RAW264.7 by treating cells with 2 μg/ml of PE for 4 hours; endogenous in cells; host or cells: RAW264.7 (lysate after PE treatment)

[2] = test system: other caspases; format: biochemical, human
[3] = target: T2, caspase-3 (Homo sapiens, UniProt P42574); format: biochemical
T2 construct: purchased BioVision
T2 sequence (P42574 29-175 limits assumed): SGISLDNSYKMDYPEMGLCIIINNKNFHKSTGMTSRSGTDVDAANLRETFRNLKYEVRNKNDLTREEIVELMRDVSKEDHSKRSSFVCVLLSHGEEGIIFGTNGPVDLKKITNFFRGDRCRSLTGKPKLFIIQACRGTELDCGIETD
T2 sequence (P42574 176-277 limits assumed): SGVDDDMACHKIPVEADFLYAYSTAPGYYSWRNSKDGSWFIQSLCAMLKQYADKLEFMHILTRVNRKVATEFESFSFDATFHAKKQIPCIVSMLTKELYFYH

[4] = test system: cholera toxin-mediated cytotoxicity in RAW264.7 cells; test: cells; settings: Mus musculus, RAW264.7, read-out: EC50 for reduction of cholera toxin-mediated cytotoxicity
[5] = target: T3, caspase-1 (Mus musculus, UniProt P29452); format: cell-based
T3 construct: Cathepsin B and caspase-1 activities in total cell lysates were determined; endogenous in cells; host or cells: RAW264.7
T3 sequence (P29452 119-296 limits assumed): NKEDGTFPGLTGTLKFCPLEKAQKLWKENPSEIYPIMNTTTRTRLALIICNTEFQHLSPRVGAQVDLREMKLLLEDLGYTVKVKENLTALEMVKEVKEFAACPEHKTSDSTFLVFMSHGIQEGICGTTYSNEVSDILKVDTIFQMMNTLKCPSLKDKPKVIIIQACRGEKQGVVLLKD
T3 sequence (P29452 315-402 limits assumed): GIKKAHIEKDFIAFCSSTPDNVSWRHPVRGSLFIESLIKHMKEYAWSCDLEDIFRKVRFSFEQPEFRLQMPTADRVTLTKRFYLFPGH

[6] = test system: Senegal ZIKV; test: Zika virus high content imaging infection assay, Senegal strain DAK AR D 41525 in Vero E6 cells; format: cell-based; settings: Vero C1008, 2 hours pretreatment, MOI 0.5, 48 hours, read-out: EC50 for inhibition of abundance of Senegal ZIKV in Vero E6 cells
[7] = target: T4, caspase-1 (Homo sapiens, UniProt P29466); format: biochemical
T4 construct: purchased BioVision
T4 sequence (P29466 120-297 limits assumed): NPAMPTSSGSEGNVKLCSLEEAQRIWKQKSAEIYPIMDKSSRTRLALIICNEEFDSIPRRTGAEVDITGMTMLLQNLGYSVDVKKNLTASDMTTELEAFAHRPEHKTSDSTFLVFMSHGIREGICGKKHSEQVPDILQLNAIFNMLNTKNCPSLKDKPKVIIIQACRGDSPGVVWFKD
T4 sequence (P29466 317-404 limits assumed): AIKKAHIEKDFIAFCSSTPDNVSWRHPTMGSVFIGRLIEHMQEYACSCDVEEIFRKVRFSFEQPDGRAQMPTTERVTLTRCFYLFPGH

[8] = target: T5, caspase-6 (Homo sapiens, UniProt P55212); format: biochemical
T5 construct: purchased BioVision
T5 sequence (P55212 24-179 limits assumed): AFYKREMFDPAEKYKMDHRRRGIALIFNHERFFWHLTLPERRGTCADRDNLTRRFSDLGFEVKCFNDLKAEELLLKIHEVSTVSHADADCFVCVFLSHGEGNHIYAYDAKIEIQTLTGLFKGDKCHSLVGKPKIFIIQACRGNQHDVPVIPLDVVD
T5 sequence (P55212 194-293 limits assumed): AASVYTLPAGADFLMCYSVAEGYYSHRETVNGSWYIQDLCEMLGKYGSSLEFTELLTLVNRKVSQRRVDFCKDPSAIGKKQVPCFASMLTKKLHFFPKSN

[9] = target: T6, caspase-9 (Homo sapiens, UniProt P55211); format: biochemical
T6 construct: purchased BioVision
T6 sequence (P55211 1-315 limits assumed): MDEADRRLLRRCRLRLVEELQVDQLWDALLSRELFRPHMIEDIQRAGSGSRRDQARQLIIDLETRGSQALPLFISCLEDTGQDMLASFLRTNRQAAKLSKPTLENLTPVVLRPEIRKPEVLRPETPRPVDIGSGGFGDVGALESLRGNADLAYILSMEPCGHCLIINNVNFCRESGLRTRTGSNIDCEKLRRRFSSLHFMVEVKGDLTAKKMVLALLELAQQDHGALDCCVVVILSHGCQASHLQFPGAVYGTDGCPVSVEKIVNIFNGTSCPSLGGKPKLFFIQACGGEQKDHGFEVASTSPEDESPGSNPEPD
T6 sequence (P55211 331-416 limits assumed): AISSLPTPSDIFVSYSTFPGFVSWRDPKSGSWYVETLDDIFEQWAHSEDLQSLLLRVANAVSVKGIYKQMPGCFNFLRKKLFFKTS

[10] = test system: PE-sensitive HapMap cells (human B-lymphocytes); format: cell-based
[11] = test system: caspase-3/7; format: biochemical, mouse
[12] = test system: botulinum neurotoxin serotype A complex (BoNT/A); design: species or system Swiss Webster (CFW) mice; settings: mouse, in vivo
[13] = target: T7, furin (Mus musculus, UniProt P23188); format: cell-based
T7 construct: endogenous in cells; host or cells: RAW264.7
T7 sequence (P23188 108-793): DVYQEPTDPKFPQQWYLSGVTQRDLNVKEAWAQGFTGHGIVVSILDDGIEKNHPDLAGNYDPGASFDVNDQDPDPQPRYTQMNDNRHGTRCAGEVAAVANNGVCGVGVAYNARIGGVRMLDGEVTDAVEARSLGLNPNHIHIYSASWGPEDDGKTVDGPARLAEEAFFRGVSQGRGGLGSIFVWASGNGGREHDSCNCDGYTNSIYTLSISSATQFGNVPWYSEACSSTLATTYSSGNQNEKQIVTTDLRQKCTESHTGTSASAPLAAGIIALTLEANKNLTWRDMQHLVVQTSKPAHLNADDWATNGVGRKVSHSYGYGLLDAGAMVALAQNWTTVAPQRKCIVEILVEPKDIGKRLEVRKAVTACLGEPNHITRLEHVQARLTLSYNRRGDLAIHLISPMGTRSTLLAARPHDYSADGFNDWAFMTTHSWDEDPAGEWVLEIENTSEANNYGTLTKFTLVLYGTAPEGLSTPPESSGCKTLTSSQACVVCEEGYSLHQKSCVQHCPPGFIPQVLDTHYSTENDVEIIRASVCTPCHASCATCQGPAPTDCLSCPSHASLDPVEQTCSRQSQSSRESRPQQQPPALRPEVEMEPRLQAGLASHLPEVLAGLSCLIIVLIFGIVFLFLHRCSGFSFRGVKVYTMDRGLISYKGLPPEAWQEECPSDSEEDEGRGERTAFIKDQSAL

[14] = test system: Pseudomonas aeruginosa exotoxin A (PE)-mediated cytotoxicity in RAW264.7 cells; test: cells; settings: Mus musculus, RAW264.7, read-out: EC50 for reduction of Pseudomonas toxin-mediated cytotoxicity
[15] = test system: Senegal ZIKV; test: Zika virus high content imaging infection assay, Senegal strain DAK AR D 41525 in human astrocytes; format: cell-based; settings: Astrocyte, 2 hours pretreatment, MOI 15, 48 hours, read-out: EC50 for inhibition of abundance of Senegal ZIKV in human astrocytes
[16] = target: T8, caspase-3 (Mus musculus, UniProt P70677); test: biochemical; format: biochemical
T8 construct: Caspases were induced in RAW264.7 by treating cells with 2 μg/ml of PE for 4 hours; endogenous in cells; host or cells: RAW264.7 (lysate after PE treatment)
T8 sequence (P70677 29-175 limits assumed): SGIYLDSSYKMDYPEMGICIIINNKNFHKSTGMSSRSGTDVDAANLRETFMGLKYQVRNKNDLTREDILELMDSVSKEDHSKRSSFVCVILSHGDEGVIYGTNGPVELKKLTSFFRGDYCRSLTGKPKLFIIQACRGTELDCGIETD
T8 sequence (P70677 176-277 limits assumed): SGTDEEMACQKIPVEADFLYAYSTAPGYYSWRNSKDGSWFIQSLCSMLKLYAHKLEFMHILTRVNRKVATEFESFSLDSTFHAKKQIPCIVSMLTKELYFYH

[17] = target: anthrax LF toxin (Bacillus anthracis, UniProt P15917); format: cell-based
anthrax LF toxin, sequence (P15917 34-809 limits assumed): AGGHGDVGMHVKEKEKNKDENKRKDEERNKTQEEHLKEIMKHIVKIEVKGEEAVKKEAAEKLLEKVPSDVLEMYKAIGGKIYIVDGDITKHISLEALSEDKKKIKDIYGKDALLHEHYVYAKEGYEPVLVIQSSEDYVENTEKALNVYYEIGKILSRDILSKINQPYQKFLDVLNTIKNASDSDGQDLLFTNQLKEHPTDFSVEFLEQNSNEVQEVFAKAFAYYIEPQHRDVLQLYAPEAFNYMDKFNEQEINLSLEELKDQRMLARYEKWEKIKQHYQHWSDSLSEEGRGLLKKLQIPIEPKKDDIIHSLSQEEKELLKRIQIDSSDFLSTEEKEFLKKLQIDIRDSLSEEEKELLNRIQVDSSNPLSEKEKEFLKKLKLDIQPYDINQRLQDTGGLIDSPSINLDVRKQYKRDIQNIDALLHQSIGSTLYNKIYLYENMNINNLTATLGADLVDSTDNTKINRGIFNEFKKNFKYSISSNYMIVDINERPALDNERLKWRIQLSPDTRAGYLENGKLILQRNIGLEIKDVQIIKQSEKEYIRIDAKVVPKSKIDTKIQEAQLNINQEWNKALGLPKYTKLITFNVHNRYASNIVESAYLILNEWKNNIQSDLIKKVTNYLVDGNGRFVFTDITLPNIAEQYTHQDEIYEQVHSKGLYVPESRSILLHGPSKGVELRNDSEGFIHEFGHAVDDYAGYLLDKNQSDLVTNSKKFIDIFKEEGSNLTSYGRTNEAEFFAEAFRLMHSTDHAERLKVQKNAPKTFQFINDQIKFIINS

[18] = test system: Puerto Rico ZIKV; test: Zika virus high content imaging infection assay, Puerto Rico strain PRVABC59 in Vero E6 cells; format: cell-based; settings: Vero C1008, 2 hours pretreatment, MOI 0.5, 48 hours, read-out: EC50 for inhibition of abundance of Puerto Rico ZIKV in Vero E6 cells
[19] = target: T9, caspase-7 (Homo sapiens, UniProt P55210); format: biochemical
T9 construct: purchased BioVision
T9 sequence (P55210 24-198 limits assumed): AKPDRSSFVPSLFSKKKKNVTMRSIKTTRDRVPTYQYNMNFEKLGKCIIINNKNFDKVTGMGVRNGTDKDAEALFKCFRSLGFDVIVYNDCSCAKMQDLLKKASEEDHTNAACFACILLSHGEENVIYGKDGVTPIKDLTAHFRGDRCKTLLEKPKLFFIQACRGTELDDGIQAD
T9 sequence (P55210 207-303 limits assumed): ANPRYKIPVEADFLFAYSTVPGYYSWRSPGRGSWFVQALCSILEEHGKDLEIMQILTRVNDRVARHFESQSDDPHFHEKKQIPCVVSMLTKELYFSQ

[20] = test system: LF-PA-mediated cell killing in RAW264.7 cells; format: cell-based, mouse
[21] = target: T10, cathepsin-B (Mus musculus, UniProt P10605); format: cell-based
T10 construct: Cathepsin B and caspase-1 activities in total cell lysates were determined; endogenous in cells; host or cells: RAW264.7
T10 sequence (P10605 80-333): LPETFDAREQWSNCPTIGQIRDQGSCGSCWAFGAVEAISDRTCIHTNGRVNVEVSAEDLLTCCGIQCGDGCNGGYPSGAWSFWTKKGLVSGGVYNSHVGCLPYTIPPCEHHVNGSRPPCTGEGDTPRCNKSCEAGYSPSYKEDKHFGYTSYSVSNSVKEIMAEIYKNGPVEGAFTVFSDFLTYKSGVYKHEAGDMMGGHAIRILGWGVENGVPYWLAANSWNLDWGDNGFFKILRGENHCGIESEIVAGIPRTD

[22] = test system: Diphtheria toxin-mediated cytotoxicity in C32 cells; test: cells; settings: Homo sapiens, C32, read-out: EC50 for reduction of diphtheria toxin-mediated cytotoxicity
[23] = target: BoNT/A light chain (Clostridium botulinum, UniProt P0DPI0); format: biochemical
BoNT/A light chain, sequence (P0DPI0 2-448 limits assumed): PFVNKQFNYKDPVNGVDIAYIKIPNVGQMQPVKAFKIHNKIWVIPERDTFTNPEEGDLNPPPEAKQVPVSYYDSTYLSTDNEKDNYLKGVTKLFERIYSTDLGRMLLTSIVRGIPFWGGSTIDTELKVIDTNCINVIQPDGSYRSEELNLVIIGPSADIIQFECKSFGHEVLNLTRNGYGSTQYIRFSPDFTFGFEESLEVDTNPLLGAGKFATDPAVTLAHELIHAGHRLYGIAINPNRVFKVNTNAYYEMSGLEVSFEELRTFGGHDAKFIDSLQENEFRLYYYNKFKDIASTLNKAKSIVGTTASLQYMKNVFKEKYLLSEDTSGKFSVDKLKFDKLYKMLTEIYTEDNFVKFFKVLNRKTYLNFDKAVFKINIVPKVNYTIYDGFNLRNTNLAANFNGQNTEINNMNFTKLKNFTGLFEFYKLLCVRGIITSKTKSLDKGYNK

[24] = test system: Pseudomonas aeruginosa exotoxin A (PE)-mediated cytotoxicity in RAW264.7 cells
[25] = test system: Diphtheria toxin-mediated cytotoxicity in C32 cells
[26] = test system: cholera toxin-mediated cytotoxicity in RAW264.7 cells

T1 sequence (O08738 6-162 limits assumed): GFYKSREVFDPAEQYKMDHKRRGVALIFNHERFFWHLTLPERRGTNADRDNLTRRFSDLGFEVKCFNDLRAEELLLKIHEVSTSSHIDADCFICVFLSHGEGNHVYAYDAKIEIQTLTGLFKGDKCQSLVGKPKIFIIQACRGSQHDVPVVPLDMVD
T1 sequence (O08738 176-276 limits assumed): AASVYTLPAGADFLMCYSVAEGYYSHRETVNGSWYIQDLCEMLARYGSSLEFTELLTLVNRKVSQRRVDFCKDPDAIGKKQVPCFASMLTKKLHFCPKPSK

Oc1c(Cl)cc(Cl)cc1Sc1cc(Cl)cc(Cl)c1O [Bithionol]
IC50 [1]: 13 µM | CCL FRET screen hit: reduction of proteolysis of caspase-6 substrate ([1]; 33 μM): capable of prominently reducing the proteolysis of all three caspase substrates | Inhibition of other purified recombinant human caspases [2]: no inhibitory effects | Inhibition of purified recombinant human caspase-3 activity [3]: inhibited activities | EC50 [4]: 10 µM | Caspase-1 induction upon LF-PA treatment [5]: caspase-1 induction was not detected | EC50 [6]: 5.5 µM | Inhibition of purified recombinant human caspase-1 activity [7]: inhibited activities | Inhibition of purified recombinant human caspase-6 activity [8]: inhibited activities | Inhibition of purified recombinant human caspase-9 activity [9]: inhibited activities | Reduction of cellular sensitivity to PE in PE-sensitive HapMap cells [10]: protected three cell lines | CCL FRET screen hit: reduction of proteolysis of caspase-3/7 substrate ([11]; 33 μM): capable of prominently reducing the proteolysis of all three caspase substrates | IC50 ([11]; read-out: IC50 for inhibition of proteolytic cleavage of caspase-3/7 substrate): 11 µM | Survival of mice challenged with lethal oral dose of BoNT/A complex [12]: all of the mice | Toxin-associated symptoms (wasp waist, paralysis) in BoNT/A challenged mice [12]: without displaying toxin-associated symptoms | Inhibition of proteolytic activity of cellular furin [13]: does not inhibit | EC50 [14]: 10 µM | EC50 [15]: 6.3 µM | IC50 [16]: 21 µM | CCL FRET screen hit: reduction of proteolysis of caspase-3 substrate ([16]; 33 μM): capable of prominently reducing the proteolysis of all three caspase substrates | Inhibition of proteolytic activity of cellular LF (MAPKK2 proteolysis) [17]: does not block proteolysis; also recorded: does not inhibit | EC50 [18]: 6.7 µM | Inhibition of purified recombinant human caspase-7 activity [19]: inhibited activities | Protection against LF-PA-mediated cell killing [20]: substantial protection | Inhibition of proteolytic activity of cellular cathepsin-B [21]: does not inhibit | EC50 [22]: 10 µM | Effect on proteolysis rate of fluorescent SNAP-25 substrate by BoNT/A [23]: did not affect the proteolysis rate

Oc1cccc(O)c1O [Pyrogallol]
CCL cellular screen hit: reduction of PE cytotoxicity [24]: capable of reducing the cytotoxicities of all three toxins | CCL cellular screen hit: reduction of diphtheria toxin cytotoxicity [25]: capable of reducing the cytotoxicities of all three toxins | CCL cellular screen hit: reduction of cholera toxin cytotoxicity [26]: capable of reducing the cytotoxicities of all three toxins
